Results taken from patent US8536215B2, “Pyrazole microbiocides” (Syngenta Crop Protection LLC, priority 2010, dated 2013).

Assays:
Botrytis cinerea = assay: Action against Botrytis cinerea - fungal growth assay; format: cell-based; conditions: 0.002% active ingredient, PDB broth, 24° C., photometric after 3-4 days
Description: (§1) Conidia of the fungus from cryogenic storage was directly mixed into nutrient broth (PDB potato dextrose broth). After placing a (DMSO) solution of the test compounds (0.002% active ingredient) into a microtiter plate (96-well format) the nutrient broth containing the fungal spores was added. The test plates were incubated at 24° C. and the inhibition of growth was measured photometrically after 3-4 days. The activity of a compound was expressed as fungal growth inhibition (0=no growth inhibition, ratings of 80% to 99% mean good to very good inhibition, 100%=complete inhibition).

[1] = test system: Mycosphaerella arachidis (Cercospora arachidicola [Anamorph]); assay: Action against Mycosphaerella arachidis (early leaf spot of groundnut) - fungal growth assay; format: cell-based; conditions: 0.002% active ingredient, PDB broth, 24° C., photometric after 6-7 days
Description: as §1, with “storage were” for “storage was”, “after 6-7” for “after 3-4”

Septoria tritici = assay: Action against Septoria tritici - fungal growth assay; format: cell-based; conditions: Zymoseptoria tritici; 0.002% active ingredient, PDB broth, 24° C., photometric after 72 hrs
Description: as §1, with “storage were” for “storage was”, “was determined” for “was measured”, “after 72 hrs.” for “after 3-4 days.”

[2] = test system: Monographella nivalis (Anamorph: Fusarium nivale, Microdochium nivale); assay: Action against Monographella nivalis (snow mould) - fungal growth assay; format: cell-based; conditions: 0.002% active ingredient, PDB broth, 24° C., photometric after 72 hrs
Description: as §1, with “storage were” for “storage was”, “a DMSO-solution” for “a (DMSO) solution”, “after 72 hrs” for “after 3-4 days. The activity of a compound was expressed as fungal growth inhibition”

Rhizoctonia Solani = assay: Action against Rhizoctonia solani - fungal growth assay; format: cell-based; conditions: 0.002% active ingredient, PDB broth, 24° C., photometric after 3-4 days
Description: as §1, with “Mycelial fragments of a newly grown liquid culture” for “Conidia”, “were” for “from cryogenic storage was”

[3] = test system: Erysiphe graminis f. sp. tritici; assay: Action against Erysiphe graminis f. sp. tritici (wheat powdery mildew), wheat leaf segments, preventive; format: in vivo; conditions: Blumeria graminis, foliar, 168 h; 0.02% active ingredient sprayed on wheat leaf segments, assessed 7 days after inoculation; read-out: preventive fungicidal activity (inhibition)
Description: (§2) Wheat leaf segments were placed on agar in multiwell plates (24-well format) and sprayed with test solutions (0.02% active ingredient). After drying, the leaf disks were inoculated with a spore suspension of the fungus. After appropriate incubation the activity of a compound was assessed 7 days after inoculation as preventive fungicidal activity.

Pyrenophora teres = assay: Action against Pyrenophora teres (net blotch) on barley leaf segments, preventive; format: in vivo; conditions: foliar, 96 h, 0.02% active ingredient sprayed on barley leaf segments, assessed 4 days after inoculation, read-out: preventive fungicidal activity (inhibition)
Description: as §2, with “Barley” for “Wheat”, “4” for “7”

Puccinia recondita [4] = assay: Protective action against Puccinia recondita (brown rust) on wheat leaf segments; format: in vivo; conditions: foliar, 192 h, 0.02% active ingredient sprayed on wheat leaf segments, assessed 8 days after inoculation, read-out: preventive fungicidal activity (inhibition)
Description: as §2, with “8” for “7”

Puccinia recondita [5] = assay: Curative action against Puccinia recondita (brown rust) on wheat leaf segments; format: in vivo; conditions: foliar, 0.02% active ingredient sprayed one day after inoculation of wheat leaf segments, assessed 8 days after inoculation, read-out: curative fungicidal activity (inhibition)
Description: Wheat leaf segments were placed on agar in multiwell plates (24-well format) and inoculated with a spore suspension of the fungus. One day after inoculation the leaf segments were sprayed with test solutions (0.02% active ingredient). After appropriate incubation the activity of a compound was assessed 8 days after inoculation as curative fungicidal activity.

Compound	inhibition at 0.002 % strength (Botrytis cinerea)	inhibition at 0.002 % strength [1]	inhibition at 0.002 % strength (Septoria tritici)	inhibition at 0.002 % strength [2]	inhibition at 0.002 % strength (Rhizoctonia Solani)	inhibition at 0.02 % strength [3]	inhibition at 0.02 % strength (Pyrenophora teres)	inhibition at 0.02 % strength (Puccinia recondita [4])	inhibition at 0.02 % strength (Puccinia recondita [5])	melting point
CON(C(=O)c1cn(C)nc1C(F)F)C(C)C1CCC(C)=CC1(C)C (single isomer, unassigned) [Compound 1.081 Diastereomer A, 3-difluoromethyl-1-methyl-1H-pyrazole-4-carboxylic acid methoxy-[1-(2,2,4-trimethyl-cyclohex-3-enyl)-ethyl]-amide]	≥ 80%	–	–	–	–	–	–	–	–	–
CON(C(=O)c1cn(C)nc1C(F)F)C(C)C1CC=C(C)CC1 (stereo not drawn) [Compound 1.049]	≥ 80%	≥ 80%	≥ 80%	≥ 80%	≥ 80%	≥ 80%	≥ 80%	–	–	–
CON(C(=O)c1cn(C)nc1C(F)F)C(C)C1CCC(C)=CC1(C)C (stereo not drawn) [Compound 1.081, 3-difluoromethyl-1-methyl-1H-pyrazole-4-carboxylic acid methoxy-[1-(2,2,4-trimethyl-cyclohex-3-enyl)-ethyl]-amide]	≥ 80%	≥ 80%	≥ 80%	≥ 80%	≥ 80%	≥ 80%	≥ 80%	≥ 80%	≥ 80%	95 to 105 °C
